The assay deals with T1, Or22a (Drosophila melanogaster, UniProt P81909).
T1 construct: his-tag; made in house; host or cells: baculovirus-infected Sf9 cells
T1 sequence (P81909 1-397): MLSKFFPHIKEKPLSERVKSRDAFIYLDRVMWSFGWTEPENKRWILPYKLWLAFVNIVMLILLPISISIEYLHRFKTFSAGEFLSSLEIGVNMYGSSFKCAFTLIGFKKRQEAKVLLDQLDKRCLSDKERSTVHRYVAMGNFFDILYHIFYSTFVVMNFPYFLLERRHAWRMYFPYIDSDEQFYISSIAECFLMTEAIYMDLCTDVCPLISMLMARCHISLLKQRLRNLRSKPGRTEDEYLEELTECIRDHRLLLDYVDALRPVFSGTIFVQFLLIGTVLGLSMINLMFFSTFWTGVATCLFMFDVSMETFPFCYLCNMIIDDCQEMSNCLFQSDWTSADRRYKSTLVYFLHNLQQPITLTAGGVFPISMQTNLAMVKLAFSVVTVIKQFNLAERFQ
Kind of assay: GFET sensor, Or22a liposomes. In kind it is biochemical. The conditions noted are these: Table 4, GFET. The source says:
The GFETs used in this study were fabricated from a predeposited graphene film on 300 nm SiO2 coated Si substrate from ACS Suppliers, USA. The FETs consist of a channel with dimensions of 100 μm width and […]. The key steps involved in fabricating the GFET on a Si/SiO2 substrate is schematically illustrated in FIG. 12. The source and drain electrodes were defined by photolithography and formed by successive deposition of Cr and Au. Both the drain and source electrodes were then encapsulated using AZ1518 photoresist and a channel with dimensions of 100 μm width and 10 μm length was left open to the environment for gating and functionalisation.
The OR liposomes were functionalised onto the graphene surface via a non-covalent route using PBASE as the molecular linker as shown in FIG. 13. The OR liposomes were diluted at 1:10 ratio with 1×PBS (pH7.4). The cleaned GFETs were immersed in 1 mM PBASE solution in methanol for 1 hour. […]
Electrical sensor measurements of OR liposome functionalised GFETs were carried out using top liquid gate morphology as shown in the schematic in FIG. 15 (a). […] The transfer characteristics of the different graphene FETs (FIG. 15 (b) to (g)) were measured at Vds=1 mV while the liquid gate voltage Vlg was swept from −0.5 V to 1 V with an interval of 20 mV. […]

By EC50 is commonly meant the concentration at which the effect is half-maximal. Low readings indicate a more potent agent, high ones a less potent agent. As to `CCCCCC(=O)OC` [methyl hexanoate], the “Detection Range” value is reported as 10^−12 to 10^−8 M and the EC50 was found to be 0.0121 nM.

The record behind these values is patent US20210255184A1, “Biosensor Device and Methods” (The New Zealand Institute for Plant and Food Research …, priority 2018, published 2021).
